From patent US20240400560A1, “BICYCLIC HETEROCYCLIC DERIVATIVE HAVING VIRAL GROWTH INHIBITORY ACTIVITY AND PHARMACEUTICAL COMPOSITION CONTAINING SAME” (Shionogi & Co., Ltd., priority 2021, published 2024)
Where two headings read alike, the source gives them in different places.

How the values were obtained:
SARS-CoV-2 = test: Inhibitory activity of cytopathic effect (CPE) in HEK293T/ACE2-TMPRSS2 cells; assay type: cell-based; settings: Severe acute respiratory syndrome coronavirus 2, HEK-293T, 72 h
SARS-CoV-2 3CL protease = SARS-CoV-2 3CL protease (Severe acute respiratory syndrome coronavirus 2, UniProt P0DTD1); test: Inhibitory activity test against SARS-CoV-2 3CL proteases; assay type: biochemical
[1] = 50% SARS-CoV-2 infected cell death inhibitory concentration, HEK293T/ACE2-TMPRSS2 cells, CellTiter-Glo 2.0 after 3 days culture, read-out: EC50
[2] = read-out: IC50 (50% SARS-CoV-2 3CL protease inhibitory concentration)
[3] = HEK293T/ACE2-TMPRSS2 cells, cultured 3 days, CellTiter-Glo 2.0 luminescence, read-out: EC50 (50% SARS-CoV-2 infected cell death inhibitory concentration)
[4] = IC50 (50% SARS-CoV-2 3CL protease inhibitory concentration)

Row | Compound | EC50 (SARS-CoV-2; [1]) [nM] | IC50 (SARS-CoV-2 3CL protease; [2]) [nM] | EC50 (SARS-CoV-2; [3]) [nM] | EC50 (SARS-CoV-2) [nM] | IC50 (SARS-CoV-2 3CL protease; [4]) [nM]
1 | COc1nc(N2CC[C@@H](C#N)C2)cc2c1c(=O)n(-c1cnc3cc(F)ccn13)c(=O)n2Cc1cc(F)c(F)c(Cl)c1 [Compound I-0736] | 20.1 | 12 | – | – | –
2 | CCn1c(-c2cc(C#N)ccc2Cl)cc2c(c1=O)c(=O)n(-c1cnc3cc(F)ccn13)c(=O)n2Cc1cc(F)c(F)c(F)c1 [Compound I-0739] | 115 | 0.98 | – | – | –
3 | COc1nc(N2CC[C@@H](OC)C2)cc2c1c(=O)n(-c1cnc3cc(F)ccn13)c(=O)n2-c1ccc(F)c(Cl)c1 [Compound I-0740] | – | < 100 | < 100 | – | –
4 | Cn1c(-c2cc(C#N)ccc2Cl)cc2c(c1=O)c(=O)n(-c1cnc3ccc(Cl)cn13)c(=O)n2Cc1cc(F)c(F)c(F)c1 [Compound I-0741] | 105 | 4.3 | – | – | –
5 | COc1nc(N2CC[C@H](OC)C2)cc2c1c(=O)n(-c1cnc3cc(F)ccn13)c(=O)n2-c1ccc(F)c(Cl)c1 [Compound I-0742] | – | < 100 | < 100 | – | –
6 | COc1nc(N2CCOCC2)cc2c1c(=O)n(-c1cnc3cc(F)ccn13)c(=O)n2-c1ccc(F)c(Cl)c1 [Compound I-0743] | 19.3 | 22 | – | – | –
7 | COc1nc(N2CC[C@@H](OC)C2)cc2c1c(=O)n(-c1cncc(Cl)c1)c(=O)n2-c1ccc(F)c(Cl)c1 [Compound I-0744] | 6.94 | 1.4 | – | – | –
8 | COc1nc(N2CC[C@@H](O)C2)cc2c1c(=O)n(-c1cnc3cc(F)ccn13)c(=O)n2-c1ccc(F)c(Cl)c1 [Compound I-0745] | – | < 100 | < 100 | – | –
9 | COc1nc(N2CC[C@@H](F)C2)cc2c1c(=O)n(-c1cnc3cc(F)ccn13)c(=O)n2-c1ccc(F)c(Cl)c1 [Compound I-0746] | 5.6 | 1.4 | – | – | –
10 | COc1nc(N2C[C@@H](F)[C@@H](F)C2)cc2c1c(=O)n(-c1cnc3cc(F)ccn13)c(=O)n2-c1ccc(F)c(Cl)c1 [Compound I-0747] | – | < 100 | < 100 | – | –
11 | COc1nc(N2C[C@H](F)[C@@H](F)C2)cc2c1c(=O)n(-c1cnc3cc(F)ccn13)c(=O)n2-c1ccc(F)c(Cl)c1 [Compound I-0748] | – | < 100 | < 100 | – | –
12 | COc1nc(N2CC[C@H](CO)C2)cc2c1c(=O)n(-c1cnc3cc(F)ccn13)c(=O)n2-c1ccc(F)c(Cl)c1 [Compound I-0749] | – | < 100 | < 100 | – | –
13 | COc1nc(N2CC[C@@H](CO)C2)cc2c1c(=O)n(-c1cnc3cc(F)ccn13)c(=O)n2-c1ccc(F)c(Cl)c1 [Compound I-0750] | 25.9 | 6.1 | – | – | –
14 | [2H]C([2H])([2H])O[C@@H]1CCN(c2cc3c(c(OC)n2)c(=O)n(-c2cnc4cc(F)ccn24)c(=O)n3-c2ccc(F)c(Cl)c2)C1 [Compound I-0751] | – | < 100 | < 100 | – | –
15 | COc1nc(N2CCCC2)cc2c1c(=O)n(-c1cnc3cc(F)ccn13)c(=O)n2-c1ccc(F)c(Cl)c1 [Compound I-0752] | – | < 100 | < 100 | – | –
16 | COc1nc(N2CC(O)(C(F)(F)F)C2)cc2c1c(=O)n(-c1cnc3cc(F)ccn13)c(=O)n2-c1ccc(F)c(Cl)c1 [Compound I-0753] | 35.7 | 21 | – | – | –
17 | COc1nc(N2[C@@H]3COC[C@H]2C3)cc2c1c(=O)n(-c1cnc3cc(F)ccn13)c(=O)n2-c1ccc(F)c(Cl)c1 [Compound I-0755] | – | – | – | 7.06 | 5.6
18 | COc1nc(N2C[C@@H]3[C@H](C2)C3(F)F)cc2c1c(=O)n(-c1cnc3cc(F)ccn13)c(=O)n2-c1ccc(F)c(Cl)c1 [Compound I-0759] | – | < 100 | < 100 | – | –
19 | COc1nc(N2CC(C)(OC)C2)cc2c1c(=O)n(-c1cnc3cc(F)ccn13)c(=O)n2-c1ccc(F)c(Cl)c1 [Compound I-0762] | – | < 100 | < 100 | – | –
20 | COc1nc(N2CC[C@@H](OC(F)F)C2)cc2c1c(=O)n(-c1cnc3cc(F)ccn13)c(=O)n2-c1ccc(F)c(Cl)c1 [Compound I-0763] | – | < 100 | < 100 | – | –
21 | [2H]C([2H])([2H])O[C@@H]1CCN(c2cc3c(c(OC)n2)c(=O)n(-c2cnc4cc(F)ccn24)c(=O)n3-c2cc(Cl)c(F)c(OC)c2)C1 [Compound I-0764] | – | < 100 | < 100 | – | –
22 | COc1cc(N2CCCC2)cc2c1c(=O)n(Cc1ncn(C)n1)c(=O)n2Cc1cc(Cl)ccc1Cl [Compound I-0784] | – | < 100 | 100 to 1000 | – | –

Row | Compound | EC50 (SARS-CoV-2; [1]) [nM] | IC50 (SARS-CoV-2 3CL protease; [2]) [nM] | EC50 (SARS-CoV-2; [3]) [nM] | EC50 (SARS-CoV-2) [nM] | IC50 (SARS-CoV-2 3CL protease; [4]) [nM]
23 | COc1cc(N2CCCC2)cc2c1c(=O)n(Cc1ncn(C)n1)c(=O)n2Cc1cc(Cl)ccc1Br [Compound I-0786] | – | < 100 | 100 to 1000 | – | –
24 | COc1nc(N2CC[C@@H](F)C2)cc2c1c(=O)n(Cc1ncn(C)n1)c(=O)n2-c1ccc(C)c(Cl)c1 [Compound I-0800] | – | < 100 | < 100 | – | –
25 | COc1nc(N2CC[C@@H](F)C2)cc2c1c(=O)n(Cc1ncn(C)n1)c(=O)n2-c1cc(F)c(Cl)c(Cl)c1 [Compound I-0802] | 11.2 | 24 | – | – | –
26 | COc1nc(N2CC[C@@H](F)C2)cc2c1c(=O)n(Cc1ncn(C)n1)c(=O)n2-c1cc(Cl)c(F)c(Cl)c1 [Compound I-0803] | 17.6 | 32 | – | – | –
27 | COc1cc(-n2c(=O)n(Cc3ncn(C)n3)c(=O)c3c(OC)nc(N4CC[C@@H](F)C4)cc32)cc(Cl)c1F [Compound I-0804] | – | < 100 | < 100 | – | –
28 | COc1nc(N2CC[C@@H](F)C2)cc2c1c(=O)n(Cc1ncn(C)n1)c(=O)n2-c1cc(C)c(F)c(Cl)c1 [Compound I-0805] | – | < 100 | < 100 | – | –
29 | COc1nc(N2[C@@H]3CC[C@H]2CNC3)cc2c1c(=O)n(-c1cnc3ccc(Cl)cn13)c(=O)n2-c1ccc(F)c(Cl)c1 [Compound I-0806] | – | – | – | 25.1 | 3.9
30 | COc1nc(N2CCC(F)(F)C2)cc2c1c(=O)n(-c1cnc3ccccn13)c(=O)n2-c1ccc(F)c(Cl)c1 [Compound I-0808] | – | < 100 | < 100 | – | –
31 | Cn1cnc(Cn2c(=O)c3c4nccnc4c(-c4cc(C#N)ccc4Cl)cc3n(Cc3cc(F)c(F)c(Cl)c3)c2=O)n1 [Compound I-0809] | – | < 100 | < 100 | – | –
32 | Cn1cnc(Cn2c(=O)c3c4nccnc4c(-c4cc(C(C)(C)O)ccc4Cl)cc3n(Cc3cc(F)c(F)c(Cl)c3)c2=O)n1 [Compound I-0810] | 19.4 | 1.3 | – | – | –
33 | Cn1cnc(Cn2c(=O)c3c4c(c(-c5cc(C#N)ccc5Cl)cc3n(Cc3cc(F)c(F)c(Cl)c3)c2=O)CCO4)n1 [Compound I-0811] | – | < 100 | < 100 | – | –
34 | Cn1cnc(Cn2c(=O)c3c4c(c(-c5cc(C(C)(C)O)ccc5Cl)cc3n(Cc3cc(F)c(F)c(Cl)c3)c2=O)CCO4)n1 [Compound I-0812] | 15.8 | 1.1 | – | – | –
35 | Cn1cnc(Cn2c(=O)c3c4nccnc4c(N4CCC(F)(F)C4)cc3n(Cc3cc(F)c(F)c(Cl)c3)c2=O)n1 [Compound I-0813] | – | < 100 | < 100 | – | –
36 | Cn1cnc(Cn2c(=O)c3c4c(c(N5CCC(F)(F)C5)cc3n(Cc3cc(F)c(F)c(Cl)c3)c2=O)CCO4)n1 [Compound I-0814] | – | < 100 | < 100 | – | –
37 | Cn1cnc(Cn2c(=O)c3c4nccnc4c(-c4cc(C(C)(C)O)c(F)cc4Cl)cc3n(Cc3cc(F)c(F)c(Cl)c3)c2=O)n1 [Compound I-0815] | – | < 100 | < 100 | – | –
38 | COc1nc2c(=O)n(Cc3ncn(C)n3)c(=O)n(Cc3cc(F)c(F)c(Cl)c3)c2cc1-c1cc(C(C)(C)O)c(F)cc1Cl [Compound I-0816] | – | < 100 | < 100 | – | –
39 | COc1nc2c(=O)n(Cc3ncn(C)n3)c(=O)n(Cc3cc(F)c(F)c(Cl)c3)c2cc1-c1nc(C#N)ccc1Cl [Compound I-0819] | – | < 100 | < 100 | – | –
40 | COc1ccc(Cl)c(-c2cc3c(nc2OC)c(=O)n(Cc2ncn(C)n2)c(=O)n3Cc2cc(F)c(F)c(Cl)c2)n1 [Compound I-0820] | – | < 100 | < 100 | – | –
41 | COc1ccc(Cl)c(-c2cc3c(nc2OC)c(=O)n(Cc2ncn(C)n2)c(=O)n3Cc2cc(Cl)c(F)cc2C)n1 [Compound I-0821] | 37.6 | 10 | – | – | –
42 | COc1nc2c(=O)n(Cc3ncn(C)n3)c(=O)n(Cc3cc(Cl)c(F)cc3C)c2cc1-c1cc(C(C)(C)O)ccc1Cl [Compound I-0822] | – | < 100 | < 100 | – | –
43 | Cn1cnc(Cn2c(=O)c3c4nccnc4c(-c4cc5c(cc4Cl)NC(=O)C5)cc3n(Cc3cc(F)c(F)c(Cl)c3)c2=O)n1 [Compound I-0823] | 197 | 0.75 | – | – | –
44 | COc1cc(-c2nc(C)ccc2Cl)cc2c1c(=O)n(Cc1ncn(C)n1)c(=O)n2Cc1cc(F)c(F)c(F)c1 [Compound I-0826] | – | < 100 | < 100 | – | –
